Measured values taken from patent US11820782B2, “Salt forms of amino pyrazine purine based selective kinase inhibitor” (FTG BIO LLC, priority 2018, dated 2023).
Read-outs that look alike come from different tables or passages of the source.

Legend:
[1] = system: U-87 (giloblastoma, epithelial); test: Anti-proliferative effect, U-87; format: cell-based
Procedure: (§1) All in vitro experiments like protein binding, microsomal stability, cell cytotoxicity were performed as per study protocols of respective experiments.

Caco-2 [2] = system: Caco-2
[3] = Microsomal stability, PHLM; format: in vitro ADME; settings: pooled human liver microsomes; for Invitro T1/2, PHLM: 3 μM (n = 3)
Procedure: as §1

[4] = Microsomal stability, MLM; format: in vitro ADME; settings: 3 μM (n = 3), mice liver microsomes
Procedure: as §1

[5] = 1 week stability of shortlisted salts at 40° C./75% RH, open; format: physicochemical; settings: for % purity / XRD: after 7 days at 40° C./75% RH, open; for % purity: HPLC; for XRD: physical form vs initial
Mouse plasma = test: Plasma protein binding, mouse; format: in vitro ADME; settings: for % Bound, Mouse plasma: 10 μM (n = 4)
Procedure: as §1

[6] = Equilibrium solubility in pH 6.8 0.01M phosphate buffer by HPLC; format: physicochemical; settings: pH6.8 0.01M potassium dihydrogen phosphate buffer
[7] = system: MDA-MB-231 (breast cancer); test: Anti-proliferative effect, MDA-MB-231; format: cell-based
Procedure: as §1

[8] = Qualitative (kinetic/visual) solubility in solvents/media; format: physicochemical
Procedure: 2 mg quantity of API was taken in glass vial and small portions of solvent was added with vortexing till the clear solution is obtained (at room temperature or heating up to 50-60° C.).
Weighed quantity of API was taken in glass vial and small portions of solvent was added with vortexing till the clear solution is obtained (at room temperature or heating up to 50-60° C.).

[9] = Qualitative solubility of FT1518 in aqueous media containing counterions; format: physicochemical
Description: Solubility of FT-1518 was checked in various counter ion solutions before performing salt screening to obtain an estimate of feasibility of salt formation in the respective counter ions.

[10] = Microsomal stability, RLM; format: in vitro ADME; settings: rat liver microsomes; for Invitro T1/2, RLM: 3 μM (n = 3)
Procedure: as §1

Hepatic clearance, rat = format: in vitro ADME
Caco-2 [11] = test: Caco-2 permeability
Hepatic clearance, dog = format: in vitro ADME; settings: dogs
[12] = Solid state stability of physical forms at 40° C./75% RH by pXRD; format: physicochemical; settings: 40° C./75% RH open, 7 days
Procedure: Physical forms crystallized from various methods of crystallization were exposed to 40° C./75% RH for 7 days in open condition to understand the physical stability of the new physical forms in the presence of heat and humidity and also to know if there is any form conversion in the stable forms of Esylate and oxalate salts of FT-1518.

prostate cancer (PC-3) = test: In vitro assay, PC-3; format: cell-based; settings: prostate cancer (PC-3) line
Procedure: as §1

Hepatic clearance, mouse = format: in vitro ADME
Hepatic clearance, human = format: in vitro ADME

For CCC(CC)n1cnc2c(-c3cnc(N)cn3)nc(N3CC4CCC(C3)O4)nc21 [FT-1518 base], which IC50 [1] is on record?
The IC50 was over 10 µM.

And the “Apparent permeability (Papp) A to B” value (Caco-2 [2])?
Its value is 21.571 ± 1.767 ×10⁻⁶ cm/s.

And the “Apparent permeability (Papp) B to A” value (Caco-2 [2])?
The value was 30.94 ± 0.428 ×10⁻⁶ cm/s.

And the “permeability in Caco-2 assay” value (Caco-2 [2])?
The value was “✓ FT1518 base, FT1518-Esylate and FT1518-Oxalate showed high permeability in Caco-2 assay. Efflux ratio of <2 indicates compounds that the compounds may not be substrates of P-gp or BCRP efflux transporters”.

And the “Invitro T1/2, PHLM” value [3]?
The value was over 1 h.

And the “stability in PHLM” value [3]?
The value was “✓ FT1518, FT 1518-Esylate and FT1518-Oxalate was highly stable in PHLM and RLM”.

And the “Invitro T1/2, MLM” value [4]?
Its value is 0.717 h.

And the “% purity” value [5]?
Its value is 97.82%.

And the XRD [5]?
The XRD was “Same as initial form”.

What about the “plasma protein binding, mouse plasma” value (Mouse plasma) of the same compound?
Its value is “✓ FT1518, FT1518-Esylate and FT1518-Oxalate showed moderate plasma protein binding in both mouse and human plasma”.

What about the “% Bound, Mouse plasma” value (Mouse plasma) of the same compound?
The value was 91.52%.

And the “Solubility in pH 6.8 buffer” value ([6]; listed as Free base of FT-1518)?
Its value is 0.02 mg/mL.

And the IC50 [7]?
Its IC50 is over 30 µM.

What about the “solubility (descriptive term)” value ([8]; 0.11N HCl) of the same compound?
The value was “soluble”.

What about the Solubility ([8]; 1,4-dioxane) of the same compound?
Its Solubility is over 100 mg/mL.

What about the “solubility (descriptive term)” value ([8]; 1,4-dioxane) of the same compound?
The value was “freely soluble”.

And the Solubility ([8]; Dimethyl sulphoxide)?
Its Solubility is over 100 mg/mL.

And the “solubility (descriptive term)” value ([8]; Dimethyl sulphoxide)?
Its value is “freely soluble”.

And the Solubility ([8]; N,N-dimethyl acetamide)?
Its Solubility is over 100 mg/mL.

And the “solubility (descriptive term)” value ([8]; N,N-dimethyl acetamide)?
The value was “freely soluble”.

What about the Solubility ([8]; N-methyl pyrrolidone) of the same compound?
The Solubility was over 100 mg/mL.

And the “solubility (descriptive term)” value ([8]; N-methyl pyrrolidone)?
The value was “freely soluble”.

What about the Solubility ([8]; Purified water) of the same compound?
Its Solubility is under 1 mg/mL.

And the Solubility ([8]; Tetrahydrofuran)?
The Solubility was over 100 mg/mL.

And the “solubility (descriptive term)” value ([8]; Tetrahydrofuran)?
The value was “freely soluble”.

What about the “solubility (descriptive term)” value ([8]; acetone) of the same compound?
The value was “freely soluble”.

And the “solubility (descriptive term)” value ([8]; acetonitrile)?
Its value is “soluble”.

And the Solubility ([8]; dichloromethane)?
Its Solubility is over 100 mg/mL.

What about the “solubility (descriptive term)” value ([8]; dichloromethane) of the same compound?
The value was “freely soluble”.

What about the Solubility ([8]; diethyl ether) of the same compound?
Its Solubility is under 1 mg/mL.

And the “solubility (descriptive term)” value ([8]; diethyl ether)?
Its value is “insoluble”.

What about the Solubility ([8]; ethanol) of the same compound?
Its Solubility is over 100 mg/mL.

And the “solubility (descriptive term)” value ([8]; ethanol)?
Its value is “freely soluble”.

And the “solubility (descriptive term)” value ([8]; ethyl acetate)?
The value was “soluble”.

And the “solubility (descriptive term)” value ([8]; isopropyl acetate)?
The value was “soluble”.

And the “solubility (descriptive term)” value ([8]; isopropyl alcohol)?
The value was “freely soluble”.

What about the Solubility ([8]; methanol) of the same compound?
Its Solubility is over 100 mg/mL.

What about the “solubility (descriptive term)” value ([8]; methanol) of the same compound?
Its value is “freely soluble”.

And the “solubility (descriptive term)” value ([8]; methyl tertiary butyl ether)?
The value was “slightly soluble”.

And the Solubility ([8]; n-heptane)?
Its Solubility is under 1 mg/mL.

What about the “solubility (descriptive term)” value ([8]; n-heptane) of the same compound?
Its value is “insoluble”.

What about the Solubility ([8]; n-hexane) of the same compound?
Its Solubility is under 1 mg/mL.

What about the “solubility (descriptive term)” value ([8]; n-hexane) of the same compound?
The value was “insoluble”.

And the “solubility (descriptive term)” value ([8]; purified water, listed as FT1518)?
Its value is “practically insoluble”.

And the “solubility (descriptive term)” value ([8]; purified water, listed as FT-1518)?
Its value is “insoluble”.

And the “solubility (descriptive term)” value ([8]; toluene)?
Its value is “soluble”.

What about the Solubility ([9]; 0.04N phthalic acid) of the same compound?
The Solubility was under 1 mg/mL.

And the Solubility ([9]; 0.1N H2SO4)?
The Solubility was over 100 mg/mL.

What about the Solubility ([9]; 0.1N adipic acid) of the same compound?
Its Solubility is under 1 mg/mL.

What about the “Invitro T1/2, RLM” value [10] of the same compound?
Its value is over 1 h.

And the “stability in RLM” value [10]?
The value was “✓ FT1518, FT 1518-Esylate and FT1518-Oxalate was highly stable in PHLM and RLM”.

Which results are given for CCC(CC)n1cnc2c(-c3cnc(N)cn3)nc(N3CC4CCC(C3)O4)nc21 [FT-1518-Oxalate]?
hepatic clearance in terms of liver blood flow (Hepatic clearance, rat): moderate; IC50 [1]: > 10 µM; Invitro T1/2, PHLM [3]: >1 h; stability in PHLM [3]: ✓ FT1518, FT 1518-Esylate and FT1518-Oxalate was highly stable in PHLM and RLM; permeability in Caco-2 assay (Caco-2 [11]): ✓ FT1518 base, FT1518-Esylate and FT1518-Oxalate showed high permeability in Caco-2 assay. Efflux ratio of <2 indicates compounds that the compounds may not be substrates of P-gp or BCRP efflux transporters; Apparent permeability (Papp) A to B (Caco-2 [11]; 10 μM (n = 3), Caco-2): 23.207 ± 1.801 ×10⁻⁶ cm/s; Apparent permeability (Papp) B to A (Caco-2 [11]; 10 μM (n = 3), Caco-2): 29.203 ± 1.482 ×10⁻⁶ cm/s; Invitro T1/2, MLM [4]: 0.767 h; pH of 2% w/v aqueous dispersion/solution ([5]; 2% w/v in water): 2.6; state of 2% w/v aqueous dispersion/solution ([5]; 2% w/v in water): dispersion; % purity [5]: 97.04%; XRD [5]: Same as initial form; plasma protein binding, mouse plasma (Mouse plasma): ✓ FT1518, FT1518-Esylate and FT1518-Oxalate showed moderate plasma protein binding in both mouse and human plasma; % Bound, Mouse plasma (Mouse plasma): 91.79%; hepatic clearance in terms of liver blood flow (Hepatic clearance, dog): low; Solubility in pH 6.8 buffer [6]: 10.21 mg/mL; IC50 [7]: > 10 µM; Solubility ([8]; Dimethyl sulphoxide): >100 mg/mL; Solubility ([8]; N-methyl pyrrolidone): >100 mg/mL; Solubility ([8]; dichloromethane): <1 mg/mL; Solubility ([8]; ethyl acetate): <1 mg/mL; Solubility ([8]; n-hexane): <1 mg/mL; Solubility ([8]; toluene): <1 mg/mL; solid state stability (pXRD form) ([12]; sample from cooling crystallization in ethanol): Same as initial salt; solid state stability (pXRD form) ([12]; sample from cooling crystallization in tetrahydrofuran): Same as initial salt; solid state stability (pXRD form) ([12]; sample from slurry transformation in ethyl acetate: water (9:1)): remained same; solid state stability (pXRD form) ([12]; sample from slurry transformation in ethyl acetate): Same as initial; solid state stability (pXRD form) ([12]; sample from slurry transformation in hexane): Same as initial; solid state stability (pXRD form) ([12]; sample from solvent evaporation in acetone): Same as initial salt form; solid state stability (pXRD form) ([12]; sample from solvent evaporation in acetonitrile): Same as initial salt; solid state stability (pXRD form) ([12]; sample from solvent evaporation in ethanol): Partial conversion of new; solid state stability (pXRD form) ([12]; sample from solvent evaporation in tetrahydrofuran): Major conversion of new; Invitro T1/2, RLM [10]: >1 h; stability in RLM [10]: ✓ FT1518, FT 1518-Esylate and FT1518-Oxalate was highly stable in PHLM and RLM; IC50 (prostate cancer (PC-3)): 183 µM; hepatic clearance in terms of liver blood flow (Hepatic clearance, mouse): moderate; hepatic clearance in terms of liver blood flow (Hepatic clearance, human): moderate
